IC50 data for 20 compounds are collected here from patent publication US20260176270A1 (Exelixis, Inc., priority 2022, published 2026).

Assay [1] concerns phosphorylation of CDK1 at Thr14 in HCC1806 cells. The assay is described as follows: Cell lysate AlphaLISA assay measuring inhibition of phosphorylation of CDK1 Thr14. To be noted: read-out: Cellular IC50. It counts as cell-based. Put shortly: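 HCC1806 cells seeded overnight, then treated 4 h at 37 °C, 5% CO2 with compounds in DMSO; washed and lysed, lysates frozen overnight at −80 °C. CDK1 Thr14 phosphorylation read by AlphaLISA SureFire Ultra; data normalized to DMSO (0% inhibition) and 3 μM reference compound to give IC50.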

In a further assay the target is T1, PKMYT1 (Homo sapiens, UniProt Q99640).
T1 construct: PKMYT1 (93 kD, full length, N-terminal GST tag from Signal Chem); GST (N); purchased Signal Chem
T1 sequence (Q99640 1-499): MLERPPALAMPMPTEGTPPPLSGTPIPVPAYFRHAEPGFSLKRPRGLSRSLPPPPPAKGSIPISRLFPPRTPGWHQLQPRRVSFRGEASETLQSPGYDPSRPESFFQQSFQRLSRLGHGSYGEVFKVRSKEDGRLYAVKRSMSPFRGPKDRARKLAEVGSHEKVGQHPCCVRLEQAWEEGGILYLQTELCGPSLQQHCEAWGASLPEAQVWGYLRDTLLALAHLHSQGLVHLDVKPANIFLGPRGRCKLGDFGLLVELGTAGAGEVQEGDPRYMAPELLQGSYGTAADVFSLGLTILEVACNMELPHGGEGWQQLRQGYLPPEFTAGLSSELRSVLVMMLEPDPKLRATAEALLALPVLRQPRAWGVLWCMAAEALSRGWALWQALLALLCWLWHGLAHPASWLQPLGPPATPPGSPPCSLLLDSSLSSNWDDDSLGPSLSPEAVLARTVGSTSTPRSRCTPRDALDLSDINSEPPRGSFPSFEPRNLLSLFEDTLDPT
The assay is described as follows: ADP-Glo PKMYT1 ATP-depletion assay. To be noted: 50 nM PKMYT1, 13.3 nM CDK1, read-out: Biochemical IC50. Put shortly:
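Full-length N-terminal GST-tagged PKMYT1 (50 nM) with GST-CDK1 (13.3 nM) as substrate and 88 µM ATP, in Hepes buffer with MgCl2, MnCl2, DTT and BSA; DMSO <1%. Incubated 120 min at RT. ADP formed was quantified by ADP-Glo luminescence and used to derive biochemical IC50.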

Like-named read-outs stand apart in the source and are kept apart here. A value given as a limit tells only on which side of the number the result lay.

As to `Cc1c(-c2c3c(cc4nccnc24)C(=O)NC(C)(C)N3)ccc(F)c1O` (atropisomer, axis not shown) [Compound 312], the IC50 in assay [1] (Homo sapiens, HCC1806, 4 h) was ≥ 5000 nM; at PKMYT1 it was ≥ 5000 nM.

On to `Cc1c(O)cccc1-c1c(N)c(C(N)=O)cc2nc(C)c(=O)n(C)c12` (atropisomer, axis not shown) [Compound 170], for which the IC50 (in assay [1] (4 hours); at PKMYT1) was ≥ 5000 nM each time.

As to `Cc1c(O)cccc1-c1ccnc2nc(C(N)=O)c(N)cc12` [Compound 233], the IC50 was ≥ 5000 nM in assay [1] (Homo sapiens, HCC1806, 4 h) and 1000 to 5000 nM at PKMYT1.

As for `Cc1c(O)cccc1-c1c(N)c(C(N)=O)nc2nccc(Cl)c12` [Compound 261], the IC50 in assay [1] (Homo sapiens, HCC1806, 4 h) is ≥ 5000 nM; at PKMYT1 it was ≥ 5000 nM.

For the compound `COc1ccnc2c(-c3cccc(O)c3C)c(N)c(C(N)=O)cc12` (atropisomer, axis not shown) [Compound 327], the IC50 (in assay [1] (4 hours); at PKMYT1) was < 50 nM in each case.

For `Cc1ccc2[nH]ncc2c1-c1c(N)c(C(N)=O)cc2cccnc12` [Compound 143], the IC50 in assay [1] (Homo sapiens, HCC1806, 4 h) is 1000 to 5000 nM; on PKMYT1, 50 to 500 nM.

Consider `Cc1c(O)cccc1-c1c(N)c(C(N)=O)cc2c1ncc(=O)n2C` [Compound 219], for which the IC50 in assay [1] (Homo sapiens, HCC1806, 4 h) is ≥ 5000 nM; on PKMYT1 it was 1000 to 5000 nM.

Turning to `COc1cncc(-c2c(N)c(C(N)=O)cc3nccnc23)c1C` [Compound 107, 7-amino-8-(5-methoxy-4-methylpyridin-3-yl)quinoxaline-6-carboxamide], the IC50 in assay [1] (Homo sapiens, HCC1806, 4 h) is ≥ 5000 nM; on PKMYT1, 50 to 500 nM.

For the compound `Cc1c(O)cccc1-c1c(N)c(C(N)=O)cc2cc(Cl)cnc12` [Compound 146], the IC50 in assay [1] (Homo sapiens, HCC1806, 4 h) was 50 to 500 nM; on PKMYT1, < 50 nM.

Regarding `COc1ccc2nc(C(N)=O)c(N)c(-c3cccc(O)c3C)c2n1` [Compound 157], the half-inhibitory concentration (IC50) in assay [1] (4 hours) was 50 to 500 nM; on PKMYT1 it was < 50 nM.

Regarding `Cc1cnc2c(-c3cccc(O)c3C)c(N)c(C(N)=O)cc2n1` (atropisomer, axis not shown) [Compound 201], the IC50 (in assay [1] (4 hours); at PKMYT1) was ≥ 5000 nM in each case.

As to `Cc1cnc2c(-c3c(C)ccc(O)c3C)c(N)c(C(N)=O)cc2n1` (atropisomer, axis not shown) [Compound 222], the IC50 (in assay [1] (4 hours); on PKMYT1) was < 50 nM in each case.

In the case of `Cc1c(O)cccc1-c1c(N)c(C(N)=O)cc2ccncc12` [Compound 335], the IC50 in assay [1] (Homo sapiens, HCC1806, 4 h) was 1000 to 5000 nM; on PKMYT1, 50 to 500 nM.

Regarding `Cc1ccc2c(-c3cccc(O)c3C)c(N)c(C(N)=O)nc2c1` [Compound 46, 3-Amino-4-(3-hydroxy-2-methylphenyl)-7-methylquinoline-2-carboxamide], the half-inhibitory concentration (IC50) is ≥ 5000 nM in assay [1] (Homo sapiens, HCC1806, 4 h) and 1000 to 5000 nM on PKMYT1.

`Cc1c(O)cccc1-c1c(N)c(C(N)=O)cc2cccnc12` (single isomer, unassigned) [Compound 62]: the IC50 in assay [1] (4 hours) is 50 to 500 nM; on PKMYT1, < 50 nM.

As for `Cc1ccc2[nH]ncc2c1-c1c(N)c(C(N)=O)cc2nccnc12` (single isomer, unassigned) [Compound 79, (M)-7-amino-8-(5-methyl-1H-indazol-4-yl)quinoxaline-6-carboxamide], the IC50 (in assay [1] (4 hours); at PKMYT1) was ≥ 5000 nM in each case.

For the compound `Cc1ccncc1-c1c(N)c(C(N)=O)nc2cccnc12` [Compound 184], the IC50 in assay [1] (Homo sapiens, HCC1806, 4 h) is ≥ 5000 nM; on PKMYT1 it was 50 to 500 nM.

Take `NC(=O)c1cc2nccnc2c(-c2ccnc3[nH]ncc23)c1N` [Compound 182]: the IC50 in assay [1] (Homo sapiens, HCC1806, 4 h) is ≥ 5000 nM; on PKMYT1, 1000 to 5000 nM.

With `Cc1cncc(C2=c3ncccc3=NC(C(N)=O)C2N)c1C` (stereo not shown) [Compound 212], the IC50 lay in the range of 500 to 1000 nM in assay [1] (4 hours) and 50 to 500 nM on PKMYT1.

`Cc1ccc(O)c(C)c1-c1c(N)c(C(N)=O)nc2cccnc12` (single isomer, unassigned) [Compound 9, (P)-3-Amino-4-(3-hydroxy-2,6-dimethylphenyl)-1,5-naphthyridine-2-carboxamide]: the IC50 (in assay [1] (4 hours); on PKMYT1) was < 50 nM in each case.
